Assay results reported in ChEMBL document CHEMBL1687706, “Inhibition of human immunodeficiency virus type 1 replication in human cells by Debio-025, a novel cyclophilin binding agent” (Antimicrob Agents Chemother, 2008).
pIC50: −log10 of the molar value.

Key:
[1] = test system: Human respiratory syncytial virus; experiment: Antiviral activity against RSV infected in human HeLa cells assessed as inhibition of viral replication
[2] = test system: Vesicular stomatitis virus; experiment: Antiviral activity against VSV infected in human embryonic lung cells assessed as inhibition of viral replication; format: functional, organism-based
[3] = test system: Human immunodeficiency virus 1; conditions: Human immunodeficiency virus 1, 3B
[4] = test system: Human immunodeficiency virus 2; experiment: Antiviral activity against HIV-2 isolate CDC310342 infected in human PBMC assessed as inhibition of viral replication; format: functional, organism-based; conditions: Human immunodeficiency virus 2, isolate CDC310342
[5] = test system: Human immunodeficiency virus 1; experiment: Antiviral activity against ABC, ddC, ddI, TDF, AZT, d4T-resistant HIV-1 G910-6 infected in human PBMC assessed as inhibition of viral replication by ELISA; format: functional, organism-based; conditions: Human immunodeficiency virus 1, G910-6
SARS-CoV = experiment: Antiviral activity against SARS coronavirus infected in african green monkey Vero cells assessed as inhibition of viral replication; format: functional, organism-based; conditions: Severe acute respiratory syndrome-related coronavirus
Rattus norvegicus = experiment: Immunosuppressive activity in Sprague-Dawley rat […] model assessed as percent T lymphocytes at 10 mg/kg, po administered once daily for 28 days by flow cytometry; format: functional
[6] = Cytotoxicity against human HeLa cells; format: cell-based; conditions: read-out: TC50 (the source's name)
[7] = test system: Human papillomavirus type 16; experiment: Antiviral activity against HPV-16 infected in Caski cells assessed as inhibition of viral replication after 3 days; format: functional, organism-based, Human papillomavirus 16
Human betaherpesvirus 5 = experiment: Antiviral activity against Human cytomegalovirus Davis infected in human embryonic lung cells assessed as reduction in viral yield; format: functional, organism-based; conditions: Human betaherpesvirus 5, Davis

C/C=C/C[C@@H](C)[C@@H](O)[C@H]1C(=O)N[C@@H](CC)C(=O)N(C)[C@H](C)C(=O)N(CC)[C@@H](C(C)C)C(=O)N[C@@H](C(C)C)C(=O)N(C)[C@@H](CC(C)C)C(=O)N[C@@H](C)C(=O)N[C@H](C)C(=O)N(C)[C@@H](CC(C)C)C(=O)N(C)[C@@H](CC(C)C)C(=O)N(C)[C@@H](C(C)C)C(=O)N1C [ALISPORIVIR]
pIC50 [1]: < 5.09 | pIC50 [2]: < 4.60 | pIC50 [3]: 7.19 | pIC50 [4]: 7.24 | pIC50 [5]: 7.54 | pIC50 (SARS-CoV): 5.11 | Activity (Rattus norvegicus): 52.4% | CC50 [6]: 8.2 µM | TC50 [7]: 1.2 µM | pIC50 (Human betaherpesvirus 5): 5.21
